The target of experiment [1] is Recombinant human Cbl-b (aa 36-427) (Homo sapiens (Human), UniProt Q13191). In words: Cbl-b Biochemical Assay (TR-FRET). To be noted: read-out: TR-FRET hCbl-b IC50. The essentials:
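IC50 from 4-parameter fit of % inhibition (DMSO max, reference-inhibitor min), duplicate ten-point series. Compound preincubated with 6 nM Cbl-b, then Src-Zap70 (1-2.5 nM)/0.5 mM ATP reaction 60 min RT; EDTA quench with labelled UBE2D2-Ub and streptavidin-terbium, 60 min, HTRF at 520 nm.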

In experiment [2] the test system is Jurkat (clone E6-1) cells, NFAT luciferase reporter. In words: Jurkat Reporter Assay (NFAT Luciferase). It counts as cell-based. As to conditions: Homo sapiens, anti-CD3 stimulation, 6 hr, read-out: Jurkat NFAT EC50. On the technique in general: Reporter assays use an easily measured gene product as a stand-in for the process of interest.
In experiment [3] the target is Recombinant human c-Cbl (aa 47-435) (Homo sapiens (Human), UniProt P22681). In words: c-Cbl Biochemical Assay (TR-FRET). Summed up: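 TR-FRET binding of UBE2D2-Ub-Bodipy (100 nM) to biotinylated c-Cbl (aa 47-435, 6 nM) via Streptavidin-Tb, measured after c-Cbl activation by Src-Zap70 with 0.5 mM ATP (60-90 min RT, 30 min compound preincubation). Ten-point half-log dilutions, 1% DMSO; IC50 by 4-parameter fit of normalized inhibition.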
Background: TR-FRET usually uses a lanthanide donor and a delayed reading to cut background.

Molecules are shown by their SMILES. Bounds are passed on as bounds.

Sequence of Recombinant human Cbl-b (aa 36-427) (Q13191 36-427): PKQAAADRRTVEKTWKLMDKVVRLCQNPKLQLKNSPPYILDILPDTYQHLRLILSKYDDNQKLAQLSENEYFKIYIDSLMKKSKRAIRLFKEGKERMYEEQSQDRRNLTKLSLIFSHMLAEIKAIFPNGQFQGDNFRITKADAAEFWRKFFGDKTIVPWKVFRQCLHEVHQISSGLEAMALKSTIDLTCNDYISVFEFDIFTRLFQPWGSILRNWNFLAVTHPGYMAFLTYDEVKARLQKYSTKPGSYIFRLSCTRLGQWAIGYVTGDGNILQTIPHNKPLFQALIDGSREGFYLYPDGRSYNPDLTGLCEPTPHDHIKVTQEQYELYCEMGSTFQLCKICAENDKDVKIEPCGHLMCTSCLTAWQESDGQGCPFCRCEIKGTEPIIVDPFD
Sequence of Recombinant human c-Cbl (aa 47-435) (P22681 47-435): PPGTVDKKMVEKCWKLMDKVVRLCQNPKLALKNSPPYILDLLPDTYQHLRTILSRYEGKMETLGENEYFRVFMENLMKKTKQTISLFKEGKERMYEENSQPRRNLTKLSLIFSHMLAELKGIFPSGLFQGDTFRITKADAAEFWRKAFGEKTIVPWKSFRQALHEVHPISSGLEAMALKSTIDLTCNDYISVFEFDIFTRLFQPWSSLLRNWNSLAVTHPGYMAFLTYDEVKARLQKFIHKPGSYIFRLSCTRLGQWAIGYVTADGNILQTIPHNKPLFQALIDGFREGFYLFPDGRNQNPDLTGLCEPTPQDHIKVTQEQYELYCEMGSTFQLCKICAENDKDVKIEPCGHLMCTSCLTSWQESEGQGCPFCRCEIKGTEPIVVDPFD

For `CCOc1cc(N2Cc3c(cccc3C(F)(F)F)C2=O)cc(C2(Cc3nncn3C)COC2)c1` [AHM-12, 2-(3-Ethoxy-5-[3-[(4-methyl-1,2,4-triazol-3-yl)methyl]oxetan-3-yl]phenyl)-4-(trifluoromethyl)-3H-isoindol-1-one], in experiment [1], the IC50 (commonly the concentration that inhibits the measured activity by half) was in the range of 200 to 1000 nM. For the same molecule, the EC50 (as a rule, the concentration giving half of the maximal effect) in experiment [2] was in the range of 1000 to 10000 nM. For `CCOc1cc(-c2ccc(C#N)cc2-c2nncn2C)cc(N2Cc3c(cc(COCCNC)cc3C(F)(F)F)C2=O)n1` [AHE-4], in that order: not above 200 nM and 1000 to 10000 nM. For `Cn1cnnc1-c1ccccc1-c1cccc(N2Cc3c(cc(COC4CCN(C(=O)OC(C)(C)C)CC4)cc3C(F)(F)F)C2=O)c1` [BB-1, tert-Butyl 4-((2-(2′-(4-methyl-4H-1,2,4-triazol-3-yl)-[1,1′-biphenyl]-3-yl)-3-oxo-7-(trifluoromethyl)isoindolin-5-yl)methoxy)piperidine-1-carboxylate], in that order: 200 to 1000 nM and 10000 to 50000 nM. The corresponding values for `CCNc1cc(-c2ccc(CO)cc2-c2nncn2C)cc(N2Cc3c(cccc3C(F)(F)F)C2=O)n1` [AFD-1, 2-[6-(ethylamino)-4-[4-(hydroxymethyl)-2-(4-methyl-1,2,4-triazol-3-yl)phenyl]pyridin-2-yl]-4-(trifluoromethyl)-3H-isoindol-1-one] are not above 200 nM and 10000 to 50000 nM. In the case of `Cn1cnnc1-c1ccccc1-c1cccc(N2Cc3c(cc(Br)cc3C(F)(F)F)C2=O)c1` [AY-1, 6-Bromo-2-(2′-(4-methyl-4H-1,2,4-triazol-3-yl)-[1,1′-biphenyl]-3-yl)-4-(trifluoromethyl)isoindolin-1-one], the half-inhibitory concentration (IC50) in experiment [1] is 200 to 1000 nM. Further, the concentration giving a half-maximal response (EC50) in experiment [2] lay in the range of 10000 to 50000 nM. For `CCNc1cc(-c2ccc(C(=O)OC)cc2-c2nncn2C)cc(N2Cc3c(cccc3C(F)(F)F)C2=O)n1` [AFC-1, Methyl 4-[2-(ethylamino)-6-[1-oxo-4-(trifluoromethyl)-3H-isoindol-2-yl]pyridin-4-yl]-3-(4-methyl-1,2,4-triazol-3-yl) benzoate], in that order: 1000 to 10000 nM and 10000 to 50000 nM. For `CN(Cc1cc2c(c(C(F)(F)F)c1)CN(c1cc(-c3ccc(C#N)cc3-c3nncn3C)cc(C3CC3)n1)C2=O)C(=O)OC(C)(C)C` [AGY-3, tert-Butyl N-[(2-{4-[4-cyano-2-(4-methyl-1,2,4-triazol-3-yl)phenyl]-6-cyclopropylpyridin-2-yl}-3-oxo-7-(trifluoromethyl)-1H-isoindol-5-yl)methyl]-N-methylcarbamate], in that order: not above 200 nM and 200 to 1000 nM. With `CCNc1cc(-c2c(-c3nncn3C)cnn2C)cc(N2Cc3c(cc(COC4CCN(C)CC4)cc3C(F)(F)F)C2=O)n1` [ADA-2, 2-[6-(Ethylamino)-4-[2-methyl-4-(4-methyl-1,2,4-triazol-3-yl)pyrazol-3-yl]pyridin-2-yl]-6-{[(1-methylpiperidin-4-yl)oxy]methyl}-4-(trifluoromethyl)-3H-isoindol-1-one], the EC50 in experiment [2] lay within 1000 to 10000 nM.

With `Cn1cnnc1-c1cc(C#N)ccc1-c1cc(C2CC2)nc(N2Cc3ccc(CN4CCC(F)(F)CC4)cc3C2=O)c1` [ALU-2, 4-(2-Cyclopropyl-6-{6-[(4,4-difluoropiperidin-1-yl)methyl]-1-oxo-3H-isoindol-2-yl}pyridin-4-yl)-3-(4-methyl-1,2,4-triazol-3-yl)benzonitrile], the IC50 in experiment [1] and in experiment [3] was not above 200 nM throughout.

Regarding `CC[C@H](O)CNCc1ccc2c(c1)C(=O)N(c1cc(-c3ccc(C#N)cc3-c3nncn3C)cc(C3CC3)n1)C2` [AJA-2, (S)-4-(2-Cyclopropyl-6-(6-(((2-hydroxybutyl)amino)methyl)-1-oxoisoindolin-2-yl)pyridin-4-yl)-3-(4-methyl-4H-1,2,4-triazol-3-yl)benzonitrile], the IC50 in experiment [1] and in experiment [3] was not above 200 nM each time. As for `Cn1cnnc1-c1cc(C#N)ccc1-c1cc(N2Cc3c(F)cc(CO)cc3C2=O)nc(C(F)(F)F)c1` [ALM-3, 4-{2-[4-Fluoro-6-(hydroxymethyl)-1-oxo-3H-isoindol-2-yl]-6-(trifluoromethyl)pyridin-4-yl}-3-(4-methyl-1,2,4-triazol-3-yl)benzonitrile], the IC50 in experiment [1] was not above 200 nM; in experiment [3], 200 to 1000 nM. `Cn1cnnc1-c1cc(C#N)ccc1-c1cc(C2CC2)nc(N2Cc3ccc(CNC[C@@H]4CCOC4)cc3C2=O)c1` [ANY-2, 4-{2-Cyclopropyl-6-[1-oxo-6-({[(3S)-oxolan-3-ylmethyl]amino}methyl)-3H-isoindol-2-yl]pyridin-4-yl}-3-(4-methyl-1,2,4-triazol-3-yl)benzonitrile]: the IC50 in experiment [1] and in experiment [3] was not above 200 nM throughout. For `Cn1cnnc1-c1cc(C#N)ccc1-c1cc(C2CC2)nc(N2Cc3c(F)cc(CN4CC[C@@H]5COC[C@H]54)cc3C2=O)c1` [AOU-1, 4-(2-Cyclopropyl-6-(4-fluoro-6-(((3aS,6aS)-hexahydro-1H-furo[3,4-b]pyrrol-1-yl)methyl)-1-oxoisoindolin-2-yl)pyridin-4-yl)-3-(4-methyl-4H-1,2,4-triazol-3-yl)benzonitrile], the IC50 in experiment [1] and in experiment [3] was not above 200 nM in each case.

Turning to `C[C@H](NCc1ccc2c(c1)C(=O)N(c1cc(-c3ccc(C#N)cc3-c3nncn3C)cc(C3CC3)n1)C2)C1CCC1` [AOK-2, 4-{2-[6-({[(1S)-1-Cyclobutylethyl]amino}methyl)-1-oxo-3H-isoindol-2-yl]-6-cyclopropylpyridin-4-yl}-3-(4-methyl-1,2,4-triazol-3-yl)benzonitrile], the IC50 in experiment [1] and in experiment [3] was not above 200 nM throughout. Regarding `CCOc1cc(-c2ccc(Cl)cc2-c2nncn2C)cc(N2Cc3ccc(CNCC4(O)CCC4)cc3C2=O)n1` [AHT-2, 2-(4-(4-Chloro-2-(4-methyl-4H-1,2,4-triazol-3-yl)phenyl)-6-ethoxypyridin-2-yl)-6-((((1-hydroxycyclobutyl)methyl)amino)methyl)isoindolin-1-one], the IC50 in experiment [1] and in experiment [3] was not above 200 nM throughout. With `CN1CCC[C@@H]1COCc1cc2c(c(C(F)(F)F)c1)CN(c1cc(-c3ccc(F)cc3-c3nncn3C)cc(C3CC3)n1)C2=O` [AHO-4, 2-{6-Cyclopropyl-4-[4-fluoro-2-(4-methyl-1,2,4-triazol-3-yl)phenyl]pyridin-2-yl}-6-({[(2R)-1-methylpyrrolidin-2-yl]methoxy}methyl)-4-(trifluoromethyl)-3H-isoindol-1-one], the 50% inhibitory concentration (IC50) in experiment [1] and in experiment [3] was not above 200 nM in each case. In the case of `Cn1cnnc1-c1cc(C#N)ccc1-c1cc(C2CC2)nc(N2Cc3c(F)cc(CN4CC[C@@H]5C[C@@H]54)cc3C2=O)c1` [AMY-1, 4-(2-{6-[(1S,5R)-2-Azabicyclo[3.1.0]hexan-2-ylmethyl]-4-fluoro-1-oxo-3H-isoindol-2-yl}-6-cyclopropylpyridin-4-yl)-3-(4-methyl-1,2,4-triazol-3-yl)benzonitrile], the IC50 in experiment [1] and in experiment [3] was not above 200 nM each time.

With `Cn1cnnc1-c1cc(C#N)ccc1-c1cc(C2CC2)nc(N2Cc3ccc(CN4CCC5(CC5)C4)cc3C2=O)c1` [AND-1, 4-[2-(6-{5-Azaspiro[2.4]heptan-5-ylmethyl}-1-oxo-3H-isoindol-2-yl)-6-cyclopropylpyridin-4-yl]-3-(4-methyl-1,2,4-triazol-3-yl)benzonitrile], the IC50 in experiment [1] and in experiment [3] was not above 200 nM in each case.

The values are drawn from patent publication US12325697B2 (Nimbus Clio, Inc., priority 2021, dated 2025).
